Source: the NIST ThermoML archive (doi:10.1021/je0342825)

Assay: xn = mol fraction of the nth substance listed
Settings: 101.3 kPa, Liquid

CC(=O)O [acetic acid] + CCO
Settings | mass density, 293.15 K [kg/m3] | mass density, 298.15 K [kg/m3] | mass density, 303.15 K [kg/m3] | speed of sound, 293.15 K [m/s] | speed of sound, 298.15 K [m/s] | speed of sound, 303.15 K [m/s] | viscosity, 293.15 K [mPa·s] | viscosity, 298.15 K [mPa·s] | viscosity, 303.15 K [mPa·s]
x1 = 0.0493 | 803.5 | 799.15 | 794.78 | 1168 | 1151 | 1133 | 1.19 | 1.083 | 0.989
x1 = 0.1004 | 817.3 | 812.87 | 808.39 | 1173 | 1156 | 1139 | 1.195 | 1.089 | 0.994
x1 = 0.1992 | 844.8 | 840.2 | 835.58 | 1182 | 1165 | 1148 | 1.23 | 1.12 | 1.023
x1 = 0.2971 | 871.59 | 866.86 | 862.09 | 1190 | 1172 | 1155 | 1.276 | 1.162 | 1.06
x1 = 0.3962 | 898.37 | 893.5 | 888.6 | 1195 | 1177 | 1160 | 1.336 | 1.215 | 1.108
x1 = 0.4961 | 924.97 | 919.96 | 914.93 | 1197 | 1179 | 1162 | 1.383 | 1.258 | 1.152
x1 = 0.5981 | 951.75 | 946.59 | 941.42 | 1196 | 1178 | 1160 | 1.432 | 1.297 | 1.183
x1 = 0.7031 | 978.85 | 973.55 | 968.23 | 1192 | 1175 | 1157 | 1.444 | 1.31 | 1.198
x1 = 0.7973 | 1002.17 | 996.74 | 991.29 | 1184 | 1166 | 1149 | 1.419 | 1.291 | 1.181
x1 = 0.8979 | 1026.4 | 1020.84 | 1015.28 | 1171 | 1153 | 1136 | 1.338 | 1.225 | 1.126
x1 = 0.9515 | 1038.72 | 1033.11 | 1027.5 | 1161 | 1143 | 1126 | 1.275 | 1.172 | 1.084
x1 = 1 | 1049.3 | 1043.65 | 1038 | 1149 | 1132 | 1115 | 1.211 | 1.115 | 1.034

CC(=O)O [acetic acid] + CCOC(C)=O
Settings | mass density, 293.15 K [kg/m3] | mass density, 298.15 K [kg/m3] | mass density, 303.15 K [kg/m3] | speed of sound, 293.15 K [m/s] | speed of sound, 298.15 K [m/s] | speed of sound, 303.15 K [m/s] | viscosity, 293.15 K [mPa·s] | viscosity, 298.15 K [mPa·s] | viscosity, 303.15 K [mPa·s]
x1 = 0.0697 | 907.35 | 901.3 | 895.2 | 1165 | 1143 | 1121 | 0.473 | 0.446 | 0.422
x1 = 0.0988 | 910.56 | 904.53 | 898.44 | 1166 | 1144 | 1122 | 0.485 | 0.458 | 0.433
x1 = 0.196 | 920.61 | 914.62 | 908.59 | 1166 | 1144 | 1123 | 0.523 | 0.493 | 0.465
x1 = 0.2944 | 931.46 | 925.5 | 919.49 | 1165 | 1144 | 1123 | 0.561 | 0.528 | 0.498
x1 = 0.3968 | 943.68 | 937.74 | 931.77 | 1165 | 1143 | 1123 | 0.617 | 0.577 | 0.541
x1 = 0.5007 | 957.31 | 951.4 | 945.46 | 1163 | 1142 | 1122 | 0.668 | 0.627 | 0.589
x1 = 0.5967 | 971.28 | 965.4 | 959.5 | 1162 | 1141 | 1121 | 0.731 | 0.684 | 0.642
x1 = 0.7 | 987.79 | 981.94 | 976.09 | 1159 | 1140 | 1120 | 0.817 | 0.762 | 0.714
x1 = 0.7989 | 1005.47 | 999.66 | 993.85 | 1157 | 1137 | 1119 | 0.912 | 0.848 | 0.792
x1 = 0.8993 | 1025.8 | 1020.06 | 1014.32 | 1153 | 1135 | 1117 | 1.052 | 0.975 | 0.91
x1 = 0.9493 | 1037.09 | 1031.4 | 1025.69 | 1152 | 1134 | 1116 | 1.113 | 1.031 | 0.958
x1 = 1 | 1049.3 | 1043.65 | 1038 | 1149 | 1132 | 1115 | 1.211 | 1.115 | 1.034

CC(=O)O [acetic acid] + CO
Settings | mass density, 293.15 K [kg/m3] | mass density, 298.15 K [kg/m3] | mass density, 303.15 K [kg/m3] | speed of sound, 293.15 K [m/s] | speed of sound, 298.15 K [m/s] | speed of sound, 303.15 K [m/s] | viscosity, 293.15 K [mPa·s] | viscosity, 298.15 K [mPa·s] | viscosity, 303.15 K [mPa·s]
x1 = 0.0498 | 811.92 | 807.17 | 802.41 | 1133 | 1116 | 1100 | 0.626 | 0.583 | 0.543
x1 = 0.1006 | 831.39 | 826.6 | 821.79 | 1143 | 1127 | 1111 | 0.676 | 0.628 | 0.585
x1 = 0.2016 | 867.61 | 862.71 | 857.79 | 1162 | 1146 | 1130 | 0.784 | 0.729 | 0.678
x1 = 0.2995 | 899.77 | 894.77 | 889.74 | 1178 | 1161 | 1145 | 0.899 | 0.825 | 0.765
x1 = 0.401 | 929.99 | 924.88 | 919.75 | 1189 | 1172 | 1156 | 1.038 | 0.954 | 0.879
x1 = 0.4992 | 956.37 | 951.16 | 945.92 | 1196 | 1179 | 1162 | 1.161 | 1.062 | 0.975
x1 = 0.5996 | 980.68 | 975.36 | 970.01 | 1198 | 1181 | 1164 | 1.274 | 1.162 | 1.062
x1 = 0.6998 | 1001.88 | 996.46 | 991.01 | 1195 | 1178 | 1161 | 1.352 | 1.229 | 1.124
x1 = 0.7969 | 1020.24 | 1014.72 | 1009.19 | 1187 | 1170 | 1153 | 1.38 | 1.26 | 1.151
x1 = 0.9 | – | 1031.06 | 1025.45 | – | 1156 | 1138 | – | 1.224 | 1.126
x1 = 0.9555 | 1043.82 | 1038.2 | 1032.56 | 1162 | 1145 | 1128 | 1.283 | 1.177 | 1.088
x1 = 1 | 1049.3 | 1043.65 | 1038 | 1149 | 1132 | 1115 | 1.211 | 1.115 | 1.034

CC(=O)O [acetic acid] + COC(C)=O
x1 = 1
Settings | mass density [kg/m3] | speed of sound [m/s] | viscosity [mPa·s]
293.15 K | 1049.3 | 1149 | 1.211
298.15 K | 1043.65 | 1132 | 1.115
303.15 K | 1038 | 1115 | 1.034

CC(=O)O [acetic acid] + O
Settings | mass density, 293.15 K [kg/m3] | mass density, 298.15 K [kg/m3] | mass density, 303.15 K [kg/m3] | speed of sound, 293.15 K [m/s] | speed of sound, 298.15 K [m/s] | speed of sound, 303.15 K [m/s] | viscosity, 293.15 K [mPa·s] | viscosity, 298.15 K [mPa·s] | viscosity, 303.15 K [mPa·s]
x1 = 0.0503 | 1019.37 | 1017.24 | 1014.94 | 1528 | 1533 | 1537 | 1.304 | 1.151 | 1.023
x1 = 0.1009 | 1034.95 | 1032.04 | 1029.02 | 1537 | 1536 | 1535 | 1.578 | 1.385 | 1.226
x1 = 0.2018 | 1053.88 | 1050 | 1046.07 | 1509 | 1502 | 1494 | 2.031 | 1.777 | 1.571
x1 = 0.3006 | 1063.42 | 1058.83 | 1054.2 | 1465 | 1454 | 1443 | 2.355 | 2.053 | 1.809
x1 = 0.4015 | 1068.15 | 1063.42 | 1058.66 | 1418 | 1405 | 1392 | 2.559 | 2.232 | 1.965
x1 = 0.5012 | 1069.68 | 1064.77 | 1059.78 | 1373 | 1359 | 1344 | 2.652 | 2.316 | 2.046
x1 = 0.6005 | 1068.8 | 1063.48 | 1058.24 | 1329 | 1314 | 1299 | 2.627 | 2.3 | 2.029
x1 = 0.7004 | 1066.55 | 1061.22 | 1055.91 | 1286 | 1270 | 1254 | 2.417 | 2.129 | 1.89
x1 = 0.8017 | 1062.78 | 1057.34 | 1051.9 | 1243 | 1226 | 1210 | 2.077 | 1.85 | 1.656
x1 = 0.8996 | 1057.35 | 1051.8 | 1046.25 | 1199 | 1183 | 1166 | 1.666 | 1.503 | 1.367
x1 = 0.9523 | 1053.56 | 1047.96 | 1042.35 | 1175 | 1157 | 1140 | 1.416 | 1.294 | 1.19
x1 = 1 | 1049.3 | 1043.65 | 1038 | 1149 | 1132 | 1115 | 1.211 | 1.115 | 1.034

CCO [ethanol] + CC(=O)O
x2 = 0
Settings | mass density [kg/m3] | speed of sound [m/s] | viscosity [mPa·s]
293.15 K | 789.75 | 1162 | 1.187
298.15 K | 785.46 | 1145 | 1.082
303.15 K | 781.15 | 1128 | 0.987

CCOC(C)=O [ethyl acetate] + CC(=O)O
x2 = 0
Settings | mass density [kg/m3] | speed of sound [m/s] | viscosity [mPa·s]
293.15 K | 900.52 | 1163 | 0.452
298.15 K | 894.43 | 1140 | 0.426
303.15 K | 888.3 | 1118 | 0.403

CO [methanol] + CC(=O)O
x2 = 0
Settings | mass density [kg/m3] | speed of sound [m/s] | viscosity [mPa·s]
293.15 K | 791.9 | 1121 | 0.585
298.15 K | 787.2 | 1104 | 0.545
303.15 K | 782.48 | 1088 | 0.508
